The values below come from US20090192169A1, “Bicyclic Benzimidazole Compounds and Their Use as Metabotropic Glutamate Receptor Potentiators” (priority 2006, published 2009).

The assay has as its target T1, human mGluR2 (Homo sapiens, UniProt Q14416).
T1 construct: expressed in transfected cells
The assay can be described thus: [35S]-GTPγS binding assay of mGluR2 receptor activation (allosteric activator activity). The conditions noted are these: membranes from CHO cells stably expressing human mGluR2; in presence of 1 μM glutamate. In kind it is biochemical. Here is the method: A [^35S]-GTPγS binding assay was used to functionally assay mGluR2 receptor activation. The allosteric activator activity of compounds at the human mGluR2 receptor was measured using a [^35S]-GTPγS binding assay with membranes prepared from CHO cells which stably express the human mGluR2. The assay is based upon the principle that agonists bind to G-protein coupled receptors to stimulate GDP-GTP exchange at the G-protein. Since [^35S]-GTPγS is a non-hydrolysable GTP analog, it can be used to provide an index of GDP-GTP exchange and, thus, receptor activation. The GTPγS binding assay therefore provides a quantitative measure of receptor activation.
Membranes were prepared from CHO cells stably transfected with human mGluR2. Membranes (30 μg protein) were incubated with test compound (3 nM to 300 μM) for 15 minutes at room temperature prior to the addition of 1 μM glutamate, and incubated for 30 min at 30° C. in 500 μl assay buffer (20 mM HEPES, 100 mM NaCl, 10 mM MgCl2), containing 30 μM GDP and 0.1 nM [^35S]-GTPγS (1250 Ci/mmol). Reactions were carried out in triplicate in 2 ml polypropylene 96-well plates. Reactions were terminated by vacuum filtration using a Packard 96-well harvester and Unifilter-96, GF/B filter microplates. The filter plates were washed 4×1.5 ml with ice-cold wash buffer ([…] sodium phosphate buffer, pH 7.4). The filter plates were dried and 35 μl of scintillation fluid (Microscint 20) was added to each well. The amount of radioactivity bound was determined by counting plates on the Packard TopCount. Data was analyzed using GraphPad Prism, and EC50 and Emax values (relative to the maximum glutamate effect) were calculated using non-linear regression.
For orientation: GTPγS is a poorly hydrolysed GTP analogue; its binding reports G protein activation.

T1 sequence (Q14416 19-872): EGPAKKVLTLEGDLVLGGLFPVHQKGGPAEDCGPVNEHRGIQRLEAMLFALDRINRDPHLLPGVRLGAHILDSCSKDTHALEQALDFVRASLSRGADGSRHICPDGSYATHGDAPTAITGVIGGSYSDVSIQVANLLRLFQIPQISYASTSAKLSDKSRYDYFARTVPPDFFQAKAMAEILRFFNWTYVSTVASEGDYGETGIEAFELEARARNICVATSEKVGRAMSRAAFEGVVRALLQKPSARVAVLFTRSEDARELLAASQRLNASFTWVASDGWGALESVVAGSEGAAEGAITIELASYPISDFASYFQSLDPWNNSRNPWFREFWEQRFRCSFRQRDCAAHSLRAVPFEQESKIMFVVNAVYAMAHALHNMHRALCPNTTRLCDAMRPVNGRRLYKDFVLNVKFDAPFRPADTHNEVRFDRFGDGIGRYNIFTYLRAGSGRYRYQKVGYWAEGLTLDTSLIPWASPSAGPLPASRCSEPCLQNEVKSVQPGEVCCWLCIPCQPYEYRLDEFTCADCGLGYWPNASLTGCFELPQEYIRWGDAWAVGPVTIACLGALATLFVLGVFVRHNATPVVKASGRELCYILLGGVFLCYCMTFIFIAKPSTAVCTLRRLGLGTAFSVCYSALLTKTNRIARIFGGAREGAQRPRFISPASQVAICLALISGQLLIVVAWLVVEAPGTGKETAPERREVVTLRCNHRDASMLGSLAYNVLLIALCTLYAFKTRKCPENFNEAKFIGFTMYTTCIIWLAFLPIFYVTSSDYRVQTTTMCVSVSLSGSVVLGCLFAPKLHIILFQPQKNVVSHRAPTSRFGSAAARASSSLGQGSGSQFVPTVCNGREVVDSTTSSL

As a reminder, the EC50 is the concentration needed to bring the measured effect to its halfway point. In the case of `Cc1cccc2nc(CN3CCC(CCOc4ccc(F)c(F)c4)CC3)n(C)c12` [Example 1.2, 2-{4-[2-(3,4-Difluoro-phenoxy)-ethyl]-piperidin-1-ylmethyl}-1,7-dimethyl-1H-benzoimidazole], the EC50 came to 57 nM.
As to `Cc1cccc2nc(CN3CCC(c4ccc(F)cc4)CC3)n(C)c12` [Example 1.49, 2-[4-(4-Fluoro-phenyl)-piperidin-1-ylmethyl]-1,7-dimethyl-1H-benzoimidazole], the EC50 was 79.5 nM.
The figure for `CCn1c(CN2CCC(c3ccccc3)(c3ccccc3)CC2)nc2ccccc21` [Example 1.54, 2-(4,4-Diphenyl-piperidin-1-ylmethyl)-1-ethyl-1H-benzoimidazole] is 1040 nM; for `Cn1c(CN2CCC(O)(c3ccc(Cl)cc3)CC2)nc2ccccc21` [Example 1.75, 4-(4-Chloro-phenyl)-1-(1-methyl-1H-benzoimidazol-2-ylmethyl)-piperidin-4-ol] it is 8610 nM; for `Cn1c(CN2CCN(c3ccc(Cl)c(Cl)c3)CC2)nc2ccccc21` [Example 26.8, 2-[4-(3,4-Dichloro-phenyl)-piperazin-1-ylmethyl]-1-methyl-1H-benzoimidazole] it is 187 nM.
